Assay results reported in PMC4109680, “Identification and Preclinical Pharmacology of the γ-Secretase Modulator BMS-869780” (International Journal of Alzheimer's Disease, 2014).

Tested on: Aβ peptides (H4-APPsw)
Assay: Aβ peptide profile in H4-APPsw cultures by MALDI-TOF mass spectrometry and urea gel western blot
Type: cell-based, human
Description: For western blotting of Aβ peptides from H4-APPsw cell cultures, Aβ was immunoprecipitated directly from the cell culture medium and was eluted from the protein G beads by addition of lithium dodecyl sulfate (LDS) electrophoresis sample buffer (Invitrogen). Aβ peptides were separated by gel electrophoresis in the presence of 8 M urea, transferred to PVDF membrane, and detected by western blotting using monoclonal 26D6-HRP conjugate.
H4-APPsw cell cultures were grown in T-75 flasks until 75% confluent and rinsed with Dulbecco's phosphate buffered saline (DPBS; Gibco cat number 14109), and 20 mL of DMEM supplemented with L-glutamine (2 mM), geneticin, penicillin, streptomycin, and DMSO with or without BMS-869780 was added (final concentration of DMSO was 0.2%). After incubation for 24 hours at 37°C in 5% CO2, culture medium was removed, centrifuged to remove cells, and frozen in aliquots at −80°C. For immunoprecipitation, aliquots of cell medium (4 mL) were thawed, followed by the addition of protease inhibitor cocktail (Sigma P-8340) to a final concentration of 1%, 60 ng of [^15N]-Aβ1-40 synthetic peptide (rPeptide, 1101-1, Athens, GA), 30 μg of monoclonal 26D6, and 15 μg of monoclonal 4G8. After incubation for 20 min on ice, 80 μL of protein G agarose beads (Pierce Rockford, IL) was added, and incubation was continued overnight at 4°C. […]
Figure 3 BMS-869780 increased the levels of the shorter peptides Aβ1-38 and Aβ1-37. (a) Top panel: an equimolar mix of synthetic peptides Aβ1-37, Aβ1-38, Aβ1-39, Aβ1-40, [^15N]-Aβ1-40, and Aβ1-42 was evaluated by MALDI-TOF mass spectrometry. H4-APPsw cell cultures were treated with vehicle (0.1% DMSO—middle panel) or BMS-869780 (100 nM—bottom panel), [^15N]-Aβ1-40 was added, and Aβ peptides were immunoprecipitated and evaluated by MALDI-TOF mass spectrometry. […] Aβ peptides were separated by gel electrophoresis in the presence of urea and detected by western blotting. […]

COc1cc(Nc2nc3n(n2)CCCC[C@H]3c2ccc(F)cc2)ccc1-n1cnc(Cl)c1 [BMS-869780]
Aβ1-37 and Aβ1-38 levels by MALDI mass spectrometry (100 nM): dramatically increased
Aβ1-40 and Aβ1-42 levels by MALDI mass spectrometry (100 nM): essentially undetectable
Aβ1-37 and Aβ1-38 levels by western blot (100 nM and 10 nM): Increased levels
